As a reminder, the IC50 is the point on the concentration scale where inhibition reaches its midpoint.

Series [1] concerns MCF-7 (human mammary adenocarcinoma) cell line. The experiment in a line: sulforhodamine B (SRB) cytotoxicity assay on MCF-7. The note with it: mean ± SE of three or four assays, incubation 72 h, 48 h exposure. It is filed as cell-based. The method, then: (§1) The compounds were screened in vitro against two cancer cell lines, MCF-7 and MDA-MB-231 (human mammary adenocarcinoma), and the normal cell line Cos-7 (African green monkey kidney fibroblast). The MCF-7 and MDA-MB231 cell lines were cultured in RPMI-1640 medium, and Cos-7 was cultured in DMEM (Dulbecco's Modified Eagle's Medium) and supplemented with 10% of fetal bovine serum, 2 mM L-glutamine, 10000 units/ml penicillin G sodium, 10000 μg/ml streptomycin sulfate, 25 μg amphotericin B (Gibco), and 1% of nonessential amino acids (Gibco). The cell lines were maintained at 37°C in a humidified atmosphere with 5% CO2. The viability of the cells used in the experiments exceeded 95%, as determined with trypan blue.
(§2) The human tumor cytotoxicity was assessed using the protein-binding dye sulforhodamine B (SRB) in a microculture assay to measure the cell growth as described by. The human tumors and normal cells were treated with the complexes. The cells were removed from the tissue culture flask by treatment with trypsin and diluted with fresh media from the cell suspension to 100 μl containing 5000–10000 cells per well. The cells were then pipetted into 96 microliter plates (Costar) and incubated at 37°C for 24 h in a 5% CO2 atmosphere. Subsequently, 100 μl of a solution of the corresponding organotin complex at different concentrations was added to each well. […] After the incubation period, the cells were fixed to the plastic substratum by the addition of 50 μl of cold trichloroacetic acid (50% aqueous).
(§3) The plates were incubated at 4°C for one hour, washed with tap water, and air-dried. The addition of […] stained trichloroacetic acid-fixed cells. The free SRB was removed by washing with 1% aqueous acetic acid, the plates were air-dried, and the dyed was solubilized by adding ten mM unbuffered Tris base (100 μl). The plates were placed on a shaker for 10 min, and the absorption was measured at 515 nm using an ELISA plate reader (Bio-Tex Instruments).
(In SRB staining, fixed cells bind dye roughly in proportion to their protein.)

For series [2], the system named is MDA-MB-231 (human mammary adenocarcinoma) cell line. The experiment in a line: sulforhodamine B (SRB) cytotoxicity assay on MDA-MB-231. It is filed as cell-based. The note with it: mean ± SE of three or four assays, incubation 72 h, 48 h exposure. As to the method: as §1, §2, §3
The test system of series [3] is COS-7 (African green monkey kidney fibroblast) normal cell line. Kind of series: sulforhodamine B (SRB) cytotoxicity assay on normal cell line COS-7. Format: cell-based. The note with it: for IC50: normal cell line, SRB assay, mean ± SE of three or four assays; for Non-Cytotoxic concentration on normal cell line COS-7: nondetectable effect on cell proliferation. As to the method: as §1
The human tumor cytotoxicity was assessed using the protein-binding dye sulforhodamine B (SRB) in a microculture assay to measure the cell growth as described by. The human tumors and normal cells were treated with the complexes. The cells were removed from the tissue culture flask by treatment with trypsin and diluted with fresh media from the cell suspension to 100 μl containing 5000–10000 cells per well. The cells were then pipetted into 96 microliter plates (Costar) and incubated at 37°C for 24 h in a 5% CO2 atmosphere. Subsequently, 100 μl of a solution of the corresponding organotin complex at different concentrations was added to each well. The cultures were exposed to the compounds for 48 h. After the incubation period, the cells were fixed to the plastic substratum by the addition of 50 μl of cold trichloroacetic acid (50% aqueous).
as §3

The nature of series [4]: stability in DMSO-d6 by 1H NMR. Format: physicochemical. To be noted: DMSO-d6 solution, up to 72 h. As to the method: The stability of the complexes in biological media was tested to evaluate their cytotoxicity. The compounds were dissolved in a DMSO-Tris-HCl buffer (3 : 7 v/v) over a 72 h period, and the UV-Vis spectra were recorded at 0 and 72 h. ^1H NMR spectra in DMSO-d6 of complexes 1a, 1d, 2a, 2d, 3a, and 3d were also acquired at 0, 24, 56, and 72 h.

Series [5] relates to MDA-MB-231 cell line. The experiment in a line: morphological changes, Giemsa stain light microscopy, MDA-MB-231. Format: cell-based, human. To be noted: 48 h treatment. As to the method:
(§4) To evaluate the morphological alterations induced by organotin(IV) complexes, MCF-7 and MDA-MB231 cell lines were cultured on a tissue culture flask with or without different treatments for 48 h. After incubation, cells were washed two times with PBS, fixed with methanol 100%, and stained with Wright-Giemsa (Sigma-Aldrich, WG32-1L). The culture flasks were examined under an Olympus IX71 Inverted Fluorescence Phase Contrast Microscope. The images were recorded with a Nikon Coolpix 4300 digital camera using the 20x objectives and analyzed by ImageJ software.

Series [6] deals with MCF-7 cell line. Kind of series: morphological changes, Giemsa stain light microscopy, MCF-7. It is filed as cell-based, human. The note with it: 48 h treatment. The method, then: as §4

In the case of `N.N.[Cl][Pt][Cl]` [Cisplatin, reference compound], the IC50 came to 5300 ± 500 nM in series [1], 27700 nM in series [2] and 7170 ± 600 nM in series [3].

Turning to `CCC[CH2][Sn]1([CH2]CCC)[O]c2cc(C)oc(=O)c2C(C)=NN=C(N)[S]1` [Compound 1a, 4-Amino-2,2-dibutyl-7,10-dimethylpyrane[3,4-h]-1,3,5,6,2-oxathiadiazastannonin-8-one], the values for the half-maximal inhibitory concentration (IC50) in series [1], in series [2] and in series [3] were 380 ± 30 nM, 120 ± 10 nM and 490 ± 30 nM, respectively. The “Non-Cytotoxic concentration on normal cell line COS-7” value (shortened to “Non-Cytotoxic concentration”) in series [3] was found to be 0.02 µM. Moreover, in series [4], the “stability by 1H NMR” value is on record as “good stability”. Moreover, the “morphological alterations MDA-MB-231” value in series [5] is reported as “Cell density decreased”.

As for `CCCCCCC[CH2][Sn]1([CH2]CCCCCCC)[O]c2cc(C)oc(=O)c2C(C)=NN=C(N)[S]1` [Compound 1b, 4-Amino-2,2-dioctyl-7,10-dimethylpyrane-[3,4-h]-1,3,5,6,2-oxathiadiazastannonin-8-one], the IC50 in series [1] was 8650 ± 700 nM; in series [2], 11000 ± 1500 nM; in series [3], 12200 ± 300 nM. Also, the “Non-Cytotoxic concentration” value in series [3] was found to be 0.2 µM.

On to `CC1=NN=C(N)[S][Sn]([c]2ccccc2)([c]2ccccc2)[O]c2cc(C)oc(=O)c21` [Compound 1c, 4-Amino-2,2-diphenyl-7,10-dimethylpyrane[3,4-h]-1,3,5,6,2-oxathiadiazastannonin-8-one], for which the IC50 in series [1] came to 611 ± 20 nM; in series [2], 170 ± 10 nM; in series [3], 680 ± 50 nM. Moreover, the “Non-Cytotoxic concentration” value in series [3] amounted to 0.02 µM. Moreover, the “morphological alterations MDA-MB-231” value in series [5] is reported as “Cell density decreased”.

In the case of `CC1=NN=C(N)[S][Sn]([CH]2CCCCC2)([CH]2CCCCC2)[O]c2cc(C)oc(=O)c21` [Compound 1d, 4-Amino-2,2-dicyclohexyl-7,10-dimethylpyrane[3,4-h]-1,3,5,6,2-oxathiadiazastannonin-8-one], the results for the IC50 in series [1], in series [2] and in series [3] were 203 ± 8 nM, 119 ± 3 nM and 180 ± 6 nM, respectively. The “Non-Cytotoxic concentration” value in series [3] was found to be 0.01 µM. For the same compound, the “stability by 1H NMR” value in series [4] is given as “good stability”.

Regarding `CC1=NN=C(N)[S][Sn]([CH2][Si](C)(C)C)([CH2][Si](C)(C)C)[O]c2cc(C)oc(=O)c21` [Compound 1e, 4-Amino-2,2-bis(trimethylsilyl)methyl-7,10-dimethylpyrane[3,4-h]-1,3,5,6,2-oxathiadiazastannonin-8-one], the IC50 turned out to be 180 ± 5 nM in series [1], 42 ± 8 nM in series [2] and 140 ± 10 nM in series [3]. Further, the “Non-Cytotoxic concentration” value in series [3] is recorded as 0.01 µM.

As for `CCC[CH2][Sn]1([CH2]CCC)[O]c2cc(C)oc(=O)c2C(C)=NN=C(CN)[S]1` [Compound 2a, 2,2-Dibutyl-7,10-dimethyl-4-(aminomethyl) Pyrane[3,4-h]-1,3,5,6,2-oxathiadiazastannonin-8-one], the values for the 50% inhibitory concentration (IC50) in series [1], in series [2] and in series [3] were 210 ± 40 nM, 310 ± 20 nM and 620 ± 60 nM, respectively. In addition, in series [3], the “Non-Cytotoxic concentration” value is 0.01 µM. The “stability by 1H NMR” value in series [4] is “good stability”.

As for `CCCCCCC[CH2][Sn]1([CH2]CCCCCCC)[O]c2cc(C)oc(=O)c2C(C)=NN=C(NC)[S]1` [Compound 2b, 2,2-Dioctyl-7,10-dimethyl-4-(aminomethyl) Pyrane[3,4-h]-1,3,5,6,2-oxathiadiazastannonin-8-one], the IC50 amounted to 1390 ± 30 nM in series [1], 3280 ± 80 nM in series [2] and 11600 ± 800 nM in series [3]. In addition, the “Non-Cytotoxic concentration” value in series [3] is 0.2 µM. In series [6], the “morphological alterations MCF-7” value is recorded as “Cell density decreased”.

For the compound `CC1=NN=C(CN)[S][Sn]([c]2ccccc2)([c]2ccccc2)[O]c2cc(C)oc(=O)c21` [Compound 2c, 2,2-Diphenyl-7,10-dimethyl-4-(aminomethyl) Pyrane[3,4-h]-1,3,5,6,2-oxathiadiazastannonin-8-one], the IC50 in series [1] was 1080 ± 10 nM; in series [2] it was 1020 ± 30 nM; in series [3], 1150 ± 100 nM. For the same compound, the “Non-Cytotoxic concentration” value in series [3] was found to be 0.02 µM.

Take `CC1=NN=C(CN)[S][Sn]([CH]2CCCCC2)([CH]2CCCCC2)[O]c2cc(C)oc(=O)c21` [Compound 2d, 2,2-Dicyclohexyl-7,10-dimethyl-4-(aminomethyl) Pyrane[3,4-h]-1,3,5,6,2-oxathiadiazastannonin-8-one]: the IC50 was 200 ± 2 nM in series [1], 87 ± 200 nM in series [2] and 280 ± 10 nM in series [3]. Besides, the “Non-Cytotoxic concentration” value in series [3] is recorded as 0.01 µM. Also, in series [4], the “stability by 1H NMR” value is on record as “good stability”.

For `CC1=NN=C(CN)[S][Sn]([CH2][Si](C)(C)C)([CH2][Si](C)(C)C)[O]c2cc(C)oc(=O)c21` [Compound 2e, 2,2-Bis(trimethylsilyl)methyl-7,10-dimethyl-4-(aminomethyl) Pyrane[3,4-h]-1,3,5,6,2-oxathiadiazastannonin-8-one], the figures for the IC50 in series [1], in series [2] and in series [3] were 150 ± 20 nM, 120 ± 8 nM and 290 ± 30 nM, respectively. Moreover, the “Non-Cytotoxic concentration” value in series [3] stood at 0.01 µM. The “morphological alterations MCF-7” value in series [6] was “cytoplasm vacuolization”.

On to `CCC[CH2][Sn]1([CH2]CCC)[O]c2cc(C)oc(=O)c2C(C)=NN=C(Nc2ccccc2)[S]1` [Compound 3a, 2,2-Dibutyl-7,10-dimethyl-4-(aminophenyl) Pyrane[3,4-h]-1,3,5,6,2-oxathiadiazastannonin-8-one], for which the IC50 in series [1] was 210 ± 9 nM; in series [2], 100 ± 10 nM; in series [3], 340 ± 10 nM. Further, the “Non-Cytotoxic concentration” value in series [3] was determined as 0.02 µM. In addition, in series [4], the “stability by 1H NMR” value is “good stability”.

Regarding `CCCCCCC[CH2][Sn]1([CH2]CCCCCCC)[O]c2cc(C)oc(=O)c2C(C)=NN=C(Nc2ccccc2)[S]1` [Compound 3b, 2,2-Dioctyl-7,10-dimethyl-4-(aminophenyl) Pyrane[3,4-h]-1,3,5,6,2-oxathiadiazastannonin-8-one], the results for the IC50 in series [1], in series [2] and in series [3] were 730 ± 100 nM, 540 ± 80 nM and 1600 ± 200 nM, respectively. The “Non-Cytotoxic concentration” value in series [3] was found to be 0.01 µM.

Take `CC1=NN=C(Nc2ccccc2)[S][Sn]([c]2ccccc2)([c]2ccccc2)[O]c2cc(C)oc(=O)c21` [Compound 3c, 2,2-Diphenyl-7,10-dimethyl-4-(aminophenyl) Pyrane[3,4-h]-1,3,5,6,2-oxathiadiazastannonin-8-one]: the IC50 in series [1] was found to be 160 ± 10 nM; in series [2] it was 490 ± 2 nM; in series [3], 250 ± 6 nM. In series [3], the “Non-Cytotoxic concentration” value is given as 0.01 µM.

As for `CC1=NN=C(Nc2ccccc2)[S][Sn]([CH]2CCCCC2)([CH]2CCCCC2)[O]c2cc(C)oc(=O)c21` [Compound 3d, 2,2-Dicyclohexyl-7,10-dimethyl-4-(aminophenyl) Pyrane[3,4-h]-1,3,5,6,2-oxathiadiazastannonin-8-one], the IC50 in series [1] was found to be 160 ± 6 nM; in series [2] it was 70 ± 5 nM; in series [3], 160 ± 20 nM. For the same compound, the “Non-Cytotoxic concentration” value in series [3] stood at 0.01 µM. The “morphological alterations MDA-MB-231” value in series [5] is “chromatin condensation”.

These data come from paper PMC10620030, “New Organotin (IV) Compounds Derived from Dehydroacetic Acid and Thiosemicarbazides: Synthesis, Rational Design, Cytotoxic Evaluation, and Molecular Docking Simulation” (Bioinorganic Chemistry and Applications, 2023).
